According to patent publication US10759831B2, “Peptide compound, production method therefor, and use thereof” (iNtRON Biotechnology, Inc., priority 2014, dated 2020):
Read-outs that look alike come from different tables or passages of the source. Values belong to the molecule of their own block, whether it stands above or below them.

Legend:
[1] = system: RKO cells; assay: Combination of Asperphenin B with other anticancer drugs, SRB cell viability; assay type: cell-based, human; conditions: 48 hours; for Effect of administration in combination: <1 synergistic, =1 additive, >1 antagonistic; for Effects of cell growth inhibition in combination with Asperphenin B compared to the anticancer drug alone: FIGS. 7A to 7C
Protocol: RKO cells diluted in a medium containing 10% (v/v) FBS were inoculated in each well of a 96-well microplate so that each plate included 7×10^3 cells, and then, the cells were cultured for about 24 hours at a temperature of 37° C. under the condition of 5% CO2. In the medium containing 10% (v/v) FBS, irinotecan (Sigma Aldrich), 5-fluorouracil (Sigma Aldrich), or gemsitabin (Sigma Aldrich) was mixed with […] at a ratio of 1:1, and then, the mixture was added to the cultured cells. Then, the cells were cultured for 48 hours at a temperature of 37° C. under the conditions of 5% CO2. […] In addition, the effects of the administration in combination were measured according to Equation 1, and results thereof are shown in Table 8. Effects of administration in combination=D1/(Dx)1+D2/(Dx)2 [Equation 1] D1: Concentration of […] with expected effect in administration in combination D2: Concentration of other anticancer drugs with expected effect in administration in combination (Dx)1: Concentration of […] with expected effect in administration of […] only (Dx)2: Concentration of other anticancer drugs with expected effect in administration of other anticancer drugs only […]

[2] = system: lung cancer cell line A549; assay: SRB cell viability assay, lung cancer cell line A549; assay type: cell-based; conditions: A549, 72 hours, read-out: Cell growth inhibition concentration (IC50)
Protocol: (§1) Regarding a lung cancer cell line A549 (Korean Cell line Bank), a colon cancer cell line HCT116 (ATCC), a stomach cancer cell line SNU638 (Korean Cell Line Bank), a liver cancer cell line SK-HEP-1 (Korean Cell line Bank), and a breast cancer cell line MDA-MB-231 (Korean Cell line Bank), a sulforhodamine B (SRB) assay which is a method of measuring cell viability was used for measuring apoptosis effects of Asperphenin.
(§2) In detail, 190 μl of a cell suspension at a concentration of 3.5×10^4 cells/ml was inoculated in each well of a 96-well microplate. 0.8 μM, 4 μM, 20 μM, or 100 μM of Asperphenin was added to the cell culture medium, and cultured at a temperature of 37° C. for 72 hours under the condition of 5% CO2. After incubation, 50 μl of 50% (v/v) trichloroacetic acid solution (Sigma Aldrich) was added to each well, and then, incubated at a temperature of 4° C. for 30 minutes, to thereby fix the cells thereto. The fixed cells were washed with water five times, and then, dried in the air.
(§3) Next, 80 μl of a 0.4% (w/v) SRB aqueous solution (Sigma Aldrich) containing 1% (v/v) acetic acid (DUKSAN) was added to each well, incubated at room temperature for 1 hour to stain cells therein, and the stained cells washed with water and dried. The cells were dissolved by adding 200 μl of 10 mM Tris (pH 10.0) (Sigma Aldrich) to each well, and then, the number of living cells was calculated by measuring the absorbance thereof at 515 nm. The concentration of the compound inhibiting cell growth to 50% based on the number of the living cells, i.e., 50% inhibition concentration (IC50) was calculated, and the results are shown in Table 3. Here, as a positive control, etoposide (Sigma Aldrich) was used.

[3] = system: colon cancer cell line HCT116; assay: SRB cell viability assay, colon cancer cell line HCT116; assay type: cell-based
Protocol: as §1, §2, §3
From the colon cancer cell lines HCT116 (ATCC), HCT15 (Korean Cell Line Bank), LS174T (Korean Cell Line Bank), RKO(ATCC), and SW480(ATCC), cell growth inhibition concentrations (IC50, μM) were calculated as described in Example 2-1, and the results are shown in Table 4. Here, as a positive control, paclitaxel (Sigma Aldrich) was used.

[4] = system: stomach cancer cell line SNU638; assay: SRB cell viability assay, stomach cancer cell line SNU638; assay type: cell-based; conditions: SNU638, 72 hours, read-out: Cell growth inhibition concentration (IC50)
Protocol: as §1, §2, §3

[5] = system: liver cancer cell line SK-HEP-1; assay: SRB cell viability assay, liver cancer cell line SK-HEP-1; assay type: cell-based; conditions: SK-HEP-1, 72 hours, read-out: Cell growth inhibition concentration (IC50)
Protocol: as §1, §2, §3

[6] = system: breast cancer cell line MDA-MB-231; assay: SRB cell viability assay, breast cancer cell line MDA-MB-231; assay type: cell-based; conditions: MDA-MB-231, 72 hours, read-out: Cell growth inhibition concentration (IC50)
Protocol: as §1, §2, §3

[7] = Physicochemical characterization
[8] = system: colon cancer cell line HCT15; assay: SRB cell viability assay, colon cancer cell line HCT15; assay type: cell-based; conditions: Homo sapiens, HCT-15, read-out: Growth inhibition value of cancer cell (IC50)
Protocol: as §2
(§4) Next, 80 μl of a 0.4% (w/v) SRB aqueous solution (Sigma Aldrich) containing 1% (v/v) acetic acid (DUKSAN) was added to each well, incubated at room temperature for 1 hour to stain cells therein, and the stained cells washed with water and dried. The cells were dissolved by adding 200 μl of 10 mM Tris (pH 10.0) (Sigma Aldrich) to each well, and then, the number of living cells was calculated by measuring the absorbance thereof at 515 nm. […]
(§5) From the colon cancer cell lines HCT116 (ATCC), HCT15 (Korean Cell Line Bank), LS174T (Korean Cell Line Bank), RKO(ATCC), and SW480(ATCC), cell growth inhibition concentrations (IC50, μM) were calculated as described in Example 2-1, and the results are shown in Table 4. […]

[9] = system: colon cancer cell line LS174T; assay: SRB cell viability assay, colon cancer cell line LS174T; assay type: cell-based; conditions: Homo sapiens, read-out: Growth inhibition value of cancer cell (IC50)
Protocol: as §2, §4, §5

[10] = system: colon cancer cell line RKO; assay: SRB cell viability assay, colon cancer cell line RKO; assay type: cell-based; conditions: Homo sapiens, read-out: Growth inhibition value of cancer cell (IC50)
Protocol: as §2, §4, §5

[11] = system: colon cancer cell line SW480; assay: SRB cell viability assay, colon cancer cell line SW480; assay type: cell-based; conditions: Homo sapiens, read-out: Growth inhibition value of cancer cell (IC50)
Protocol: as §2, §4, §5

SMILES: O=c1[nH]cc(F)c(=O)[nH]1 [5-fluorouracil]
- Effect of administration in combination ([1]; 5-fluorouracil 0.08 μM + Asperphenin B 8 μM): 0.863
- Effect of administration in combination ([1]; 5-fluorouracil 0.4 μM + Asperphenin B 8 μM): 0.852
- Effect of administration in combination ([1]; 5-fluorouracil 2 μM + Asperphenin B 8 μM): 0.786
- Effect of administration in combination ([1]; 5-fluorouracil 10 μM + Asperphenin B 8 μM): 0.765
- Effects of cell growth inhibition in combination with Asperphenin B compared to the anticancer drug alone [1]: increased

SMILES: CCCCCCCCC[C@@H](O)CC(=O)N[C@@H](CC(N)=O)C(=O)N[C@@H](CCC(N)=O)C(=O)N[C@@H](CC(=O)c1cc(C)cc(O)c1C(=O)c1c(O)cccc1O)CC(C)C [Asperphenin A]
- IC50 [2]: 14.6 µM
- IC50 ([3]; HCT116, 72 hours, Table 3, read-out: Cell growth inhibition concentration (IC50)): 1.7 µM
- IC50 [4]: 5.8 µM
- IC50 [5]: 2.3 µM
- IC50 [6]: 3.1 µM
- Solubility in organic solvent ([7]; methanol and acetone): well dissolved in a moderate organic solvent, such as methanol and acetone
- Stability ([7]; room temperature): stable at room temperature

- IC50 ([2]; Homo sapiens): 0.7 µM
- IC50 ([3]; Homo sapiens, HCT-116, HCT116, 72 hours, Table 3, read-out: Cell growth inhibition concentration (IC50)): 1.9 µM
- IC50 ([4]; Homo sapiens, SNU-638): 0.8 µM
- IC50 ([5]; Homo sapiens, SK-HEP1): 0.6 µM
- IC50 ([6]; Homo sapiens): 10.6 µM
SMILES: COc1cc([C@@H]2c3cc4c(cc3[C@@H](O[C@@H]3O[C@@H]5CO[C@@H](C)O[C@H]5[C@H](O)[C@H]3O)[C@H]3COC(=O)[C@H]23)OCO4)cc(OC)c1O [Etoposide, etoposide, reference compound]

SMILES: Nc1ccn([C@@H]2O[C@H](CO)[C@@H](O)C2(F)F)c(=O)n1 [Gemsitabin, gemsitabin]
- Effects of cell growth inhibition in combination with Asperphenin B compared to the anticancer drug alone [1]: increased
- Effect of administration in combination ([1]; gemsitabin 0.32 μM + Asperphenin B 8 μM): 0.907
- Effect of administration in combination ([1]; gemsitabin 1.6 μM + Asperphenin B 8 μM): 0.882
- Effect of administration in combination ([1]; gemsitabin 8 μM + Asperphenin B 8 μM): 0.801
- Effect of administration in combination ([1]; gemsitabin 40 μM + Asperphenin B 8 μM): 0.714

SMILES: CCc1c2c(nc3ccc(OC(=O)N4CCC(N5CCCCC5)CC4)cc13)-c1cc3c(c(=O)n1C2)COC(=O)[C@]3(O)CC [Irinotecan, irinotecan]
- Effects of cell growth inhibition in combination with Asperphenin B compared to the anticancer drug alone [1]: increased
- Effect of administration in combination ([1]; irinotecan 1.25 μM + Asperphenin B 2.5 μM): 0.792
- Effect of administration in combination ([1]; irinotecan 2.5 μM + Asperphenin B 2.5 μM): 0.751
- Effect of administration in combination ([1]; irinotecan 5 μM + Asperphenin B 2.5 μM): 0.691
- Effect of administration in combination ([1]; irinotecan 10 μM + Asperphenin B 2.5 μM): 0.650

- IC50 ([3]; Homo sapiens, HCT-116, HCT116, Table 4, read-out: Growth inhibition value of cancer cell (IC50)): 0.00042 µM
- IC50 [8]: > 0.1 µM
- IC50 [9]: 0.00046 µM
- IC50 [10]: 0.00021 µM
- IC50 [11]: > 0.1 µM
SMILES: CC(=O)O[C@H]1C(=O)[C@@]2(C)[C@H]([C@H](OC(=O)c3ccccc3)[C@]3(O)C[C@H](OC(=O)[C@H](O)[C@@H](NC(=O)c4ccccc4)c4ccccc4)C(C)=C1C3(C)C)[C@]1(OC(C)=O)CO[C@@H]1C[C@@H]2O [Paclitaxel, paclitaxel, reference compound]
